# Source: patent EP0314302A2, “Herbicidal o-carbomethoxy-sulfonylureas” (E.I. DU PONT DE NEMOURS AND COMPANY, priority 1987, dated 1989)
# How the values were obtained:
# Aegilops cylindrica = test: Test 1 greenhouse, preemergence; type: in vivo; details: 21 days, scale 0-100
# Description: (§1) Seeds of Bromus tectorum, Kochia scoparia, Salsoa kali, Avena fatua, Convolvulus arvensis, Secale cereale, Setaria viridis and Triticum aestivum were placed in 26-cm plastic pans containing a pasteurized sandy loam soil (pH 6.5, 1% organic matter). Plantings were maintained in the greenhouse for 18-28 days at which time the postemergence treatments were applied using a nonphytotoxic solvent as the carrier for the herbicide. The preemergence segment of the test was seeded immediately before herbicide application using Bromus tectorum, Kochia scoparia, Polygonum convolvulus, Salsoa kali, Avena fatua, Convolvulus arvensis, Secale cereale, Setaria viridis, Aegilops cylindrica, Amaranthus retroflexus, Chenopodium album, Hordeum vulgare, Triticum aestivum, Sorghum bicolor, and Zea mays. All treatments were maintained in the greenhouse for an additional 21 days at which time visual assessment of weed control was determined using a scale of 0 to 100 for each species where 0 represented no control and 100 represented complete control.
# Amaranthus retroflexus = test: Test 1 greenhouse, preemergence; type: in vivo; details: 21 days, scale 0-100
# Description: as §1
# Avena fatua = test: Test 1 greenhouse, preemergence; type: in vivo; details: 21 days, scale 0-100
# Description: as §1
# Chenopodium album = test: Test 1 greenhouse, preemergence; type: in vivo; details: 21 days, scale 0-100
# Description: as §1
# Convolvulus arvensis = test: Test 1 greenhouse, preemergence; type: in vivo; details: 21 days, scale 0-100
# Description: as §1
# Polygonum convolvulus = test: Test 1 greenhouse, preemergence; type: in vivo; details: 21 days, scale 0-100
# Description: as §1
# Salsoa kali = test: Test 1 greenhouse, preemergence; type: in vivo; details: 21 days, scale 0-100
# Description: as §1
# Setaria viridis = test: Test 1 greenhouse, preemergence; type: in vivo; details: 21 days, scale 0-100
# Description: as §1
# Sorghum bicolor = test: Test 1 greenhouse, preemergence; type: in vivo; details: 21 days, scale 0-100
# Description: as §1
# Triticum aestivum = test: Test 1 greenhouse, preemergence; type: in vivo; details: 21 days, scale 0-100
# Description: as §1
# Zea mays = test: Test 1 greenhouse, preemergence; type: in vivo; details: 21 days, scale 0-100
# Description: as §1
# Tansy mustard = test: Test 7 postemergence; type: in vivo, Descurainia pinnata; details: scale 0-100
# Description: Individual 11.4-cm plastic pots filled with planting medium were seeded with rape, wild radish (Raphanus raphanistruna). tansy mustard (Descurainia pinnata), ball mustard (Neslia paniculata), black mustard (Brassica nigra), yellow mustard, brown mustard, lentils, safflower, flax, sunflower, peanut, vetch, alfalfa, field bean, pea, violet (Viola spp), Kochia (Kochia spp), Russian thistle (Salsola spp), Matricaria spp, groundsel (Senecio spp), shepherdspurse (Capsella bursa-pastoris), nightshade (Solanum spp), sowthistle (Sonchus spp), sugar beet, wheat, "Bonanza" barley and "Morex" barley, Kentucky bluegrass (Poa pratensis), red clover (Trifolium pratense), dandelion (Taraxacum spp) and buckhorn plantain (Plantago lanceolata).
# Plants were treated postemergence with the compound formulated with a non-phytotoxic carrier. Plants were visually rated 18 days after treatment (DAT). Response ratings were based on the scale of 0 to 100 where 0 = no effect, 20 = minimal injury and 100 = complete control.
# Itchgrass = test: Test 11 windowsill flats, postemergence; type: in vivo, Rottboellia exaltata; details: Postemergence 32 g/ha, 0.25% X-77 surfactant, scale 0-100
# Description: Budded citrus seedlings were planted in 30-liter plastic pots which were also seeded with sandbur, guineagrass, narrowleaf panicum, common ragweed, yellow nutsedge, purple nutsedge and bindweed. Compound I was applied preemergence and postemergence to the weeds. Treatments were sprayed to simulate the trunk-to-trunk herbicide application method used in some citrus groves. The compound was also applied postemergence to weeds grown in windowsill flats. The flats were filled with planting medium and seeded with morningglory (Ipomoea spp.). purple nutsedge (Cyperus rotundus), pigweed (Amaranthus spp.), bindweed (Convolvulus spp.), narrowleaf panicum (Panicum maximum), common ragweed (Ambrosia artemisiifolia), sandbur (Cenchrus echinatus), itchgrass (Rottboellia exaltata), johnsongrass (Sorghum halepense), guineagrass (Panicum maximum), smooth crabgrass (Digitaria ischaemum), broadleaf signalgrass (Brachiaria platyphylla), bermudagrass (Cynodon dactylon), goosegrass (Eleusine indica), large crabgrass (Digitaria sanguinalis) and yellow nutsedge (Cyperus esculentus).
# The compound was formulated and sprayed with 0.25% X-77 surfactant in water. Plants were visually rated 21 and 29 days after treatment and compared with appropriate controls. Injury ratings were based on the scale of 0 to 100, where 0 indicates no effect, 20 indicates minimum effect and 100 indicates complete control. […]
structure (smiles),measurement,setting,value
"COC(=O)c1cccnc1S(=O)(=O)NC(=O)Nc1nc(OC)cc(OC)n1 [Compound I, 2-[[(4,6-dimethoxypyrimidin-2-yl)aminocarbonyl]aminosulfonyl]-3-pyridinecarboxylic acid, methyl ester]",visual assessment of weed control,Aegilops cylindrica; 4 g/ha,30
same,visual assessment of weed control,Aegilops cylindrica; 8 g/ha,50
same,visual assessment of weed control,Aegilops cylindrica; 16 g/ha,60
same,visual assessment of weed control,Aegilops cylindrica; 32 g/ha,80
same,visual assessment of weed control,Aegilops cylindrica; 64 g/ha,100
same,visual assessment of weed control,Aegilops cylindrica; 125 g/ha,100
same,visual assessment of weed control,Amaranthus retroflexus; 4 g/ha,70
same,visual assessment of weed control,Amaranthus retroflexus; 8 g/ha,90
same,visual assessment of weed control,Amaranthus retroflexus; 16 g/ha,90
same,visual assessment of weed control,Amaranthus retroflexus; 32 g/ha,100
same,visual assessment of weed control,Amaranthus retroflexus; 64 g/ha,100
same,visual assessment of weed control,Amaranthus retroflexus; 125 g/ha,100
same,visual assessment of weed control,Avena fatua; 4 g/ha,0
same,visual assessment of weed control,Avena fatua; 8 g/ha,40
same,visual assessment of weed control,Avena fatua; 16 g/ha,50
same,visual assessment of weed control,Avena fatua; 32 g/ha,60
same,visual assessment of weed control,Avena fatua; 64 g/ha,90
same,visual assessment of weed control,Avena fatua; 125 g/ha,100
same,visual assessment of weed control,Chenopodium album; 4 g/ha,60
same,visual assessment of weed control,Chenopodium album; 8 g/ha,90
same,visual assessment of weed control,Chenopodium album; 16 g/ha,90
same,visual assessment of weed control,Chenopodium album; 32 g/ha,100
same,visual assessment of weed control,Chenopodium album; 64 g/ha,100
same,visual assessment of weed control,Chenopodium album; 125 g/ha,100
same,visual assessment of weed control,Convolvulus arvensis; 4 g/ha,20
same,visual assessment of weed control,Convolvulus arvensis; 8 g/ha,40
same,visual assessment of weed control,Convolvulus arvensis; 16 g/ha,90
same,visual assessment of weed control,Convolvulus arvensis; 32 g/ha,90
same,visual assessment of weed control,Convolvulus arvensis; 64 g/ha,100
same,visual assessment of weed control,Convolvulus arvensis; 125 g/ha,100
same,visual assessment of weed control,Polygonum convolvulus; 4 g/ha,20
same,visual assessment of weed control,Polygonum convolvulus; 8 g/ha,20
same,visual assessment of weed control,Polygonum convolvulus; 16 g/ha,80
same,visual assessment of weed control,Polygonum convolvulus; 32 g/ha,80
same,visual assessment of weed control,Polygonum convolvulus; 64 g/ha,80
same,visual assessment of weed control,Polygonum convolvulus; 125 g/ha,100
same,visual assessment of weed control,Salsoa kali; 4 g/ha,50
same,visual assessment of weed control,Salsoa kali; 8 g/ha,70
same,visual assessment of weed control,Salsoa kali; 16 g/ha,70
same,visual assessment of weed control,Salsoa kali; 32 g/ha,80
same,visual assessment of weed control,Salsoa kali; 64 g/ha,100
same,visual assessment of weed control,Salsoa kali; 125 g/ha,100
same,visual assessment of weed control,Setaria viridis; 4 g/ha,20
same,visual assessment of weed control,Setaria viridis; 8 g/ha,30
same,visual assessment of weed control,Setaria viridis; 16 g/ha,50
same,visual assessment of weed control,Setaria viridis; 32 g/ha,70
same,visual assessment of weed control,Setaria viridis; 64 g/ha,90
same,visual assessment of weed control,Setaria viridis; 125 g/ha,100
same,visual assessment of weed control,Sorghum bicolor; 4 g/ha,90
same,visual assessment of weed control,Sorghum bicolor; 8 g/ha,100
same,visual assessment of weed control,Sorghum bicolor; 16 g/ha,100
same,visual assessment of weed control,Sorghum bicolor; 32 g/ha,100
same,visual assessment of weed control,Sorghum bicolor; 64 g/ha,100
same,visual assessment of weed control,Sorghum bicolor; 125 g/ha,100
same,visual assessment of weed control,Triticum aestivum; 4 g/ha,70
same,visual assessment of weed control,Triticum aestivum; 8 g/ha,100
same,visual assessment of weed control,Triticum aestivum; 16 g/ha,100
same,visual assessment of weed control,Triticum aestivum; 32 g/ha,100
same,visual assessment of weed control,Triticum aestivum; 64 g/ha,100
same,visual assessment of weed control,Triticum aestivum; 125 g/ha,100
same,visual assessment of weed control,Zea mays; 4 g/ha,40
same,visual assessment of weed control,Zea mays; 8 g/ha,50
same,visual assessment of weed control,Zea mays; 16 g/ha,90
same,visual assessment of weed control,Zea mays; 32 g/ha,90
same,visual assessment of weed control,Zea mays; 64 g/ha,90
same,visual assessment of weed control,Zea mays; 125 g/ha,100
same,Plant Injury Rating 18 DAT,Tansy mustard; 16 g/ha,100
same,Plant Injury Rating 18 DAT,Tansy mustard; 32 g/ha,100
same,Injury ratings,Itchgrass,100
